Measured values reported in article PMC11020753, “Contribution of amino acids in the active site of dipeptidyl peptidase 4 to the catalytic action of the enzyme” (PLOS ONE, 2024).
Where two headings read alike, the source gives them in different places. Non-standard residues stand in square brackets, D forms with d. Residues, ends and D or L forms follow the SMILES beside them. *: point of attachment. AMC = Cc1cc(=O)oc2cc(N*)ccc12; Tle = CC(C)(C)[C@H](N)C(=O)O

Legend:
Format in all cases: biochemical
DP4 variant R125A [1] = molecular target: T1, DP4 variant R125A (Homo sapiens, UniProt P27487, R125A); experiment: Hydrolysis of dipeptide-AMC substrates (fluorescence); conditions: substrate hydrolysis, 100 mM HEPES-buffer (pH 7.6), T = 30 °C
T1 construct: His(6)-37-766 hDP4 containing fractions were concentrated to 1 ml; made in house; host or cells: Pichia pastoris X-33 (vector pPICZα C, secreted)
Procedure: (§1) The reactions were performed in 100 mM HEPES buffer, pH 7.6 at 30°C in a total assay volume of 270 μl by using 96-well plates. […] Fluorescence was detected with a […]luor Plus (TECAN) at an excitation wavelength of 380 nm and an emission wavelength of 465 nm.

DP4 variant E206A [2] = molecular target: T2, DP4 variant E206A (Homo sapiens, UniProt P27487, E206A); experiment: as above; conditions: substrate hydrolysis, 100 mM HEPES-buffer (pH 7.6), T = 30 °C
T2 construct: His(6)-37-766 hDP4 containing fractions were concentrated to 1 ml as described above; His6 (N); made in house; host or cells: Pichia pastoris X-33, vector pPICZα C (secreted)
Procedure: as §1

DP4 variant N710A [3] = molecular target: T3, DP4 variant N710A (Homo sapiens, UniProt P27487, N710A); experiment: as above; conditions: for Km / kcat: N710A, substrate hydrolysis, 100 mM HEPES-buffer (pH 7.6), T = 30 °C
T3 construct: His(6)-37-766 hDP4 containing fractions were concentrated to 1 ml; made in house; host or cells: Pichia pastoris X-33 (vector pPICZα C, secreted)
Procedure: as §1

DP4 variant R125K [4] = molecular target: T4, DP4 variant R125K (Homo sapiens, UniProt P27487, R125K); experiment: as above; conditions: substrate hydrolysis, 100 mM HEPES-buffer (pH 7.6), T = 30 °C
T4 construct: His(6)-37-766 hDP4 containing fractions were concentrated to 1 ml; made in house; host or cells: Pichia pastoris X-33 (vector pPICZα C, secreted)
Procedure: as §1

wild type DP4 [5] = molecular target: T5, wild type DP4 (Homo sapiens, UniProt P27487); experiment: as above; conditions: substrate hydrolysis, 100 mM HEPES-buffer (pH 7.6), T = 30 °C
T5 construct: His(6)-37-766 hDP4 containing fractions were concentrated to 1 ml; made in house; host or cells: Pichia pastoris X-33 (vector pPICZα C, secreted)
Procedure: as §1

DP4 variant E205A [6] = molecular target: T6, DP4 variant E205A (Homo sapiens, UniProt P27487, E205A); experiment: as above; conditions: substrate hydrolysis, 100 mM HEPES-buffer (pH 7.6), T = 30 °C
T6 construct: His(6)-37-766 hDP4 containing fractions were concentrated to 1 ml as described above; His6 (N); made in house; host or cells: Pichia pastoris X-33, vector pPICZα C (secreted)
Procedure: as §1

DP4 variant N710D [7] = molecular target: T7, DP4 variant N710D (Homo sapiens, UniProt P27487, N710D); experiment: as above; conditions: substrate hydrolysis, 100 mM HEPES-buffer (pH 7.6), T = 30 °C
T7 construct: His(6)-37-766 hDP4 containing fractions were concentrated to 1 ml; made in house; host or cells: Pichia pastoris X-33 (vector pPICZα C, secreted)
Procedure: (§2) The reactions were performed in 100 mM HEPES buffer, pH 7.6 at 30°C in a total assay volume of 270 μl by using 96-well plates. […] Fluorescence was detected with a [sequence]luor Plus (TECAN) at an excitation wavelength of 380 nm and an emission wavelength of 465 nm.

DP4 variant N710Q [8] = molecular target: T8, DP4 variant N710Q (Homo sapiens, UniProt P27487, N710Q); experiment: as above
T8 construct: His(6)-37-766 hDP4 containing fractions were concentrated to 1 ml; made in house; host or cells: Pichia pastoris X-33 (vector pPICZα C, secreted)
Procedure: as §2

DP4 variant N710Q [9] = molecular target: T8, DP4 variant N710Q; experiment: IC50 determination with substrate Gly-Pro-AMC; conditions: bounds given in mM, 100 mM HEPES-buffer (pH 7.6), T = 30 °C, substrate Gly-Pro-AMC in the range of Km
Procedure: as §1

DP4 variant R125A [10] = molecular target: T1, DP4 variant R125A; experiment: IC50 determination with substrate Gly-Pro-AMC; conditions: 100 mM HEPES-buffer (pH 7.6), T = 30 °C, substrate Gly-Pro-AMC in the range of Km
Procedure: as §1

DP4 variant E206A [11] = molecular target: T2, DP4 variant E206A; experiment: IC50 determination with substrate Gly-Pro-AMC; conditions: bounds given in mM, 100 mM HEPES-buffer (pH 7.6), T = 30 °C, substrate Gly-Pro-AMC in the range of Km
Procedure: as §1

DP4 variant N710A [12] = molecular target: T3, DP4 variant N710A; experiment: IC50 determination with substrate Gly-Pro-AMC; conditions: bounds given in mM, 100 mM HEPES-buffer (pH 7.6), T = 30 °C, substrate Gly-Pro-AMC in the range of Km
Procedure: as §1

DP4 variant R125K [13] = molecular target: T4, DP4 variant R125K; experiment: IC50 determination with substrate Gly-Pro-AMC; conditions: 100 mM HEPES-buffer (pH 7.6), T = 30 °C, substrate Gly-Pro-AMC in the range of Km
Procedure: as §1

wild type DP4 [14] = molecular target: T5, wild type DP4; experiment: IC50 determination with substrate Gly-Pro-AMC; conditions: 100 mM HEPES-buffer (pH 7.6), T = 30 °C, substrate Gly-Pro-AMC in the range of Km
Procedure: as §1

DP4 variant N710D [15] = molecular target: T7, DP4 variant N710D; experiment: IC50 determination with substrate Gly-Pro-AMC; conditions: 100 mM HEPES-buffer (pH 7.6), T = 30 °C, substrate Gly-Pro-AMC in the range of Km
Procedure: as §1

DP4 variant E205A [16] = molecular target: T6, DP4 variant E205A; experiment: IC50 determination with substrate Gly-Pro-AMC; conditions: 100 mM HEPES-buffer (pH 7.6), T = 30 °C, substrate Gly-Pro-AMC in the range of Km
Procedure: as §1

[17] = N710Q, substrate hydrolysis, 100 mM HEPES-buffer (pH 7.6), T = 30 °C

T1 sequence (P27487 37-766 R125A): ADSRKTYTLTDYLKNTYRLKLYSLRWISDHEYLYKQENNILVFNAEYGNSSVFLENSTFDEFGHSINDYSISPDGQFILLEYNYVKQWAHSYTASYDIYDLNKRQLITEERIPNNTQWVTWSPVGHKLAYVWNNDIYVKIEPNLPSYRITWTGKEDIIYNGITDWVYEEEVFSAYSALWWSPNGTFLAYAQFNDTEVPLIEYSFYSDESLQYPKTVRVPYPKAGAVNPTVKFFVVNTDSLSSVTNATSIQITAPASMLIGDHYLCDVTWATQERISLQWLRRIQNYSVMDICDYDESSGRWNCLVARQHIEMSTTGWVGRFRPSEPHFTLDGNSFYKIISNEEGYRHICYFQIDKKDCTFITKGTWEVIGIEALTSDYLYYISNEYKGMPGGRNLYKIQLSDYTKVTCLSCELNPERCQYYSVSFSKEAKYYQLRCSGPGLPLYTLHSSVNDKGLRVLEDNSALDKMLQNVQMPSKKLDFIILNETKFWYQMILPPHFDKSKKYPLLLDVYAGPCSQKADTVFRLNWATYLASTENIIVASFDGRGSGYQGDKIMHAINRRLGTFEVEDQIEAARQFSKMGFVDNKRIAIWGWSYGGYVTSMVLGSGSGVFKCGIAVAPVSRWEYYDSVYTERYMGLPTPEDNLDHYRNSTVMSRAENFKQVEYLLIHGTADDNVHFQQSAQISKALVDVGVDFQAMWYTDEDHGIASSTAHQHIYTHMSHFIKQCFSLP
T8 sequence (P27487 37-766 N710Q): as the sequence (P27487 37-766 R125A) above, with A89R, N674Q counted along it
T5 sequence (P27487 37-766): as the sequence (P27487 37-766 R125A) above, with A89R counted along it
T2 sequence (P27487 37-766 E206A): as the sequence (P27487 37-766 R125A) above, with A89R, E170A counted along it
T3 sequence (P27487 37-766 N710A): as the sequence (P27487 37-766 R125A) above, with A89R, N674A counted along it
T7 sequence (P27487 37-766 N710D): as the sequence (P27487 37-766 R125A) above, with A89R, N674D counted along it
T4 sequence (P27487 37-766 R125K): as the sequence (P27487 37-766 R125A) above, with A89K counted along it
T6 sequence (P27487 37-766 E205A): as the sequence (P27487 37-766 R125A) above, with A89R, E169A counted along it

SMILES	Km (DP4 variant R125A [1]) [µM]	kcat (DP4 variant R125A [1]) [s⁻¹]	kcat (DP4 variant E206A [2])	Km (DP4 variant N710A [3]) [µM]	kcat (DP4 variant N710A [3])	Km (DP4 variant R125K [4]) [µM]	kcat (DP4 variant R125K [4]) [s⁻¹]	Km (wild type DP4 [5]) [µM]	kcat (wild type DP4 [5]) [s⁻¹]	Km (DP4 variant E205A [6]) [µM]	kcat (DP4 variant E205A [6]) [s⁻¹]	kcat (DP4 variant N710D [7]) [s⁻¹]	kcat (DP4 variant N710Q [8]; [17])	other results
Cc1cc(=O)oc2cc(NC(=O)[C@H](C)NC(=O)[C@H](C)N)ccc12 [Ala-Ala-AMC] (H-Ala-Ala-{AMC})	710	2.3 ± 0.08	No hydrolysis at concentrations < 10 mM	410	(9.4 ± 0.06) · 10^−3 s^−1	1500	2.6 ± 0.09	550	5.7 ± 0.18	4700	0.15 ± 0.015	0.05 ± 0.003	No hydrolysis at concentrations < 10 mM	Km (DP4 variant E206A [2]): No hydrolysis at concentrations < 10 mM; Km (DP4 variant N710D [7]): 1800 µM; Km (DP4 variant N710Q [8]; [17]): No hydrolysis at concentrations < 10 mM
Cc1cc(=O)oc2cc(NC(=O)[C@@H]3CCCN3C(=O)[C@H](C)N)ccc12 [Ala-Pro-AMC] (H-Ala-Pro-{AMC})	37	48 ± 1.0	0.8 ± 0.05 s⁻¹	1700	0.74 ± 0.03 s⁻¹	38	37 ± 0.5	19	32 ± 0.9	240	17 ± 0.2	19 ± 0.6	0.23 ± 0.01 s⁻¹	Km (DP4 variant E206A [2]; read-out: Km): 3400 µM; Change of Km-value in comparison to the wild type enzyme (decreased) (DP4 variant N710A [3]; N710A vs wild type): 100 fold; Drop of kcat-value in comparison to the wild type enzyme (DP4 variant N710A [3]; N710A vs wild type): ~30 factor; Change of Km-value in comparison to the wild type enzyme (decreased) (DP4 variant N710Q [8]; N710Q vs wild type): 100 fold; Drop of kcat-value in comparison to the wild type enzyme (DP4 variant N710Q [8]; N710Q vs wild type): ~30 factor
CC[C@H](C)[C@H](NC(=O)[C@@H]1CCCN1C(=O)[C@@H](N)C(C)(C)C)C(=O)O [t-Bu-Gly-Pro-Ile, t-Butyl-Gly-Pro-Ile] (H-[Tle]-Pro-Ile-OH)														IC50 (DP4 variant N710Q [9]): > 10 mM; IC50 (DP4 variant R125A [10]): 400 µM; IC50 (DP4 variant E206A [11]): > 10 mM; IC50 (DP4 variant N710A [12]): > 10 mM; IC50 (DP4 variant R125K [13]): 200 µM; IC50 (wild type DP4 [14]): 3.6 µM; IC50 (DP4 variant N710D [15]): 600 µM; IC50 (DP4 variant E205A [16]): 1700 µM
